# According to EP4559911A1, “NOVEL HETEROCYCLIC COMPOUND AND PHARMACEUTICAL COMPOSITION FOR INHIBITING AUTOTAXIN COMPRISING THE SAME” (Nextgen Bioscience Co., Ltd., priority 2022, dated 2024):
# Molecular target: human Autotaxin protein (Homo sapiens, UniProt Q13822)
# Test: Evaluation of the inhibitory activity against human Autotaxin protein (18:1 LysoPC substrate, choline assay kit, absorbance at 570 nm)
# Assay type: biochemical
# Conditions: compound at 500nM; 2 hours at 37 °C; % inhibition = (1 - absorbance test group / absorbance control group) X 100
# Procedure, shortened: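 Human autotaxin (20 μL of 240 nM stock) was reacted with sonicated 18:1 LysoPC (10 μL of 360 μM stock) in Tris pH 8.0 buffer with BSA for 2 h at 37 °C, using 6 compound concentrations from 5-fold dilution. Released choline was detected via choline oxidase/dye probe (30 min), read as absorbance at 570 nm. % inhibition was calculated relative to control.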
row,inhibition at 0.5 µM [%],Structure (SMILES)
1,17.6,"Fc1cc2c(cc1F)CC(Nc1ncc(-c3nnc(N4CC(c5nnn[nH]5)C4)o3)cn1)C2 [Example 68, 5-(5-(3-(1H-tetrazol-5-yl)azetidin-1-yl)-1,3,4-oxadiazol-2-yl)-N-(5,6-difluoro-2,3-dihydro-1H-inden-2-yl)pyrimidin-2-amine]"
2,95.5,"COc1ccc2c(c1)CC(Nc1ncc(-c3nnc(N4CC(c5c[nH]nn5)C4)o3)cn1)C2 (centres unmarked) [Example 71, 5-(5-(3-(1H-1,2,3-triazol-4-yl)azetidin-1-yl)-1,3,4-oxadiazol-2-yl)-N-(5-methoxy-2,3-dihydro-1H-inden-2-yl)pyrimidin-2-amine]"
3,84.6,"Cc1[nH]nnc1C1CN(c2nnc(-c3cnc(NC4Cc5cc(F)c(F)cc5C4)nc3)o2)C1 [Example 75, N-(5,6-difluoro-2,3-dihydro-1H-inden-2-yl)-5-(5-(3-(5-methyl-1H-1,2,3-triazol-4-yl)azetidin-1-yl)-1,3,4-oxadiazol-2-yl)pyrimidin-2-amine]"
4,64,"Fc1cc2c(cc1F)CC(Nc1ncc(-c3nnc(N4CC(c5c[nH]cn5)C4)o3)cn1)C2 [Example 76, 5-(5-(3-(1H-imidazol-4-yl)azetidin-1-yl)-1,3,4-oxadiazol-2-yl)-N-(5,6-difluoro-2,3-dihydro-1H-inden-2-yl)pyrimidin-2-amine]"
5,43.7,"c1cnc2c(c1)CC(Nc1ncc(-c3nnc(N4CC(c5c[nH]nn5)C4)o3)cn1)C2 (centres unmarked) [Example 77, N-(5-(5-(3-(1H-1,2,3-triazol-4-yl)azetidin-1-yl)-1,3,4-oxadiazol-2-yl)pyrimidin-2-yl)-6,7-dihydro-5H-cyclopenta[b]pyridin-6-amine]"
6,24.7,"Fc1cc2c(cc1F)CC(Nc1ncc(-c3nnc(N4CC(n5cncn5)C4)o3)cn1)C2 [Example 79, 5-(5-(3-(1H-1,2,4-triazol-1-yl)azetidin-1-yl)-1,3,4-oxadiazol-2-yl)-N-(5,6-difluoro-2,3-dihydro-1H-inden-2-yl)pyrimidin-2-amine]"
7,10.4,"Cc1ncn(C2CN(c3nnc(-c4cnc(NC5Cc6cc(F)c(F)cc6C5)nc4)o3)C2)n1 [Example 80, N-(5,6-difluoro-2,3-dihydro-1H-inden-2-yl)-5-(5-(3-(3-methyl-1H-1,2,4-triazol-1-yl)azetidin-1-yl)-1,3,4-oxadiazol-2-yl)pyrimidin-2-amine]"
8,7,"Fc1cc2c(cc1F)CC(Nc1ncc(-c3nnc(N4CC(N5CCOCC5)C4)o3)cn1)C2 [Example 81, N-(5,6-difluoro-2,3-dihydro-1H-inden-2-yl)-5-(5-(3-morpholinoazetidin-1-yl)-1,3,4-oxadiazol-2-yl)pyrimidin-2-amine]"
9,19.8,"c1cc2c(cn1)CC(Nc1ncc(-c3nnc(N4CC(c5c[nH]nn5)C4)o3)cn1)C2 (centres unmarked) [Example 85, N-(5-(5-(3-(1H-1,2,3-triazol-4-yl)azetidin-1-yl)-1,3,4-oxadiazol-2-yl)pyrimidin-2-yl)-6,7-dihydro-5H-cyclopenta[c]pyridin-6-amine]"
10,10.5,"CN(c1ncc(-c2nnc(N3CC(c4c[nH]nn4)C3)o2)cn1)C1Cc2cc(F)c(F)cc2C1 [Example 88, 5-(5-(3-(1H-1,2,3-triazol-4-yl)azetidin-1-yl)-1,3,4-oxadiazol-2-yl)-N-(5,6-difluoro-2,3-dihydro-1H-inden-2-yl)-N-methylpyrimidin-2-amine]"
11,84.9,"FC1(c2c[nH]nn2)CN(c2nnc(-c3cnc(NC4Cc5ccc(Br)cc5C4)nc3)o2)C1 (centres unmarked) [Example 89, N-(5-bromo-2,3-dihydro-1H-inden-2-yl)-5-(5-(3-fluoro-3-(1H-1,2,3-triazol-4-yl)azetidin-1-yl)-1,3,4-oxadiazol-2-yl)pyrimidin-2-amine]"
12,97.1,"Clc1ccc2c(c1)CC(Nc1ncc(-c3nnc(N4CC(c5c[nH]nn5)C4)o3)cn1)C2 (centres unmarked) [Example 91, 5-(5-(3-(1H-1,2,3-triazol-4-yl)azetidin-1-yl)-1,3,4-oxadiazol-2-yl)-N-(5-chloro-2,3-dihydro-1H-inden-2-yl)pyrimidin-2-amine]"

# The remaining lines, values behind:
row,Structure (SMILES),inhibition at 0.5 µM [%]
1,"CC1(c2c[nH]nn2)CN(c2nnc(-c3cnc(NC4Cc5ccccc5C4)nc3)o2)C1 [Example 69, N-(2,3-dihydro-1H-inden-2-yl)-5-(5-(3-methyl-3-(1H-1,2,3-triazol-4-yl)azetidin-1-yl)-1,3,4-oxadiazol-2-yl)pyrimidin-2-amine]",95.4
2,"COc1ccc2c(c1)CC(Nc1ncc(-c3nnc(N4CC(c5cn(COC(=O)C(C)(C)C)nn5)C4)o3)cn1)C2 (centres unmarked) [Example 70, (4-(1-(5-(2-((5-methoxy-2,3-dihydro-1H-inden-2-yl)amino)pyrimidin-5-yl)-1,3,4-oxadiazol-2-yl)azetidin-3-yl)-1H-1,2,3-triazol-1-yl)methyl pivalate]",9.6
3,"CC(C)(C)C(=O)OCn1cc(C2CN(c3nnc(-c4cnc(NC5Cc6nccnc6C5)nc4)o3)C2)nn1 [Example 72, (4-(1-(5-(2-((6,7-dihydro-5H-cyclopenta[b]pyrazin-6-yl)amino)pyrimidin-5-yl)-1,3,4-oxadiazol-2-yl)azetidin-3-yl)-1H-1,2,3-triazol-1-yl)methyl pivalate]",3.1
4,"CC(C)(C)C(=O)OCn1cc(C2CN(c3nnc(-c4cnc(NC5Cc6cccnc6C5)nc4)o3)C2)nn1 (centres unmarked) [Example 73, (4-(1-(5-(2-((6,7-dihydro-5H-cyclopenta[b]pyridin-6-yl)amino)pyrimidin-5-yl)-1,3,4-oxadiazol-2-yl)azetidin-3-yl)-1H-1,2,3-triazol-1-yl)methyl pivalate]",1.2
5,"c1cnc2c(n1)CC(Nc1ncc(-c3nnc(N4CC(c5c[nH]nn5)C4)o3)cn1)C2 [Example 74, N-(5-(5-(3-(1H-1,2,3-triazol-4-yl)azetidin-1-yl)-1,3,4-oxadiazol-2-yl)pyrimidin-2-yl)-6,7-dihydro-5H-cyclopenta[b]pyrazin-6-amine]",7.1
6,"CC1(c2c[nH]nn2)CN(C(=O)/C=C/c2cnc(NC3Cc4cc(F)c(F)cc4C3)nc2)C1 [Example 78, (E)-3-(2-((5,6-difluoro-2,3-dihydro-1H-inden-2-yl)amino)pyrimidin-5-yl)-1-(3-methyl-3-(1H-1,2,3-triazol-4-yl)azetidin-1-yl)prop-2-en-1-one]",99.1
7,"CC1(c2c[nH]nn2)CN(C(=O)/C=C/c2cnc(NC3Cc4ccccc4C3)nc2)C1 [Example 82, (E)-3-(2-((2,3-dihydro-1H-inden-2-yl)amino)pyrimidin-5-yl)-1-(3-methyl-3-(1H-1,2,3-triazol-4-yl)azetidin-1-yl)prop-2-en-1-one]",98
8,"FC1(c2c[nH]nn2)CN(c2nnc(-c3cnc(NC4Cc5ccccc5C4)nc3)o2)C1 [Example 83, N-(2,3-dihydro-1H-inden-2-yl)-5-(5-(3-fluoro-3-(1H-1,2,3-triazol-4-yl)azetidin-1-yl)-1,3,4-oxadiazol-2-yl)pyrimidin-2-amine]",81.6
9,"CC(C)(C)C(=O)OCn1cc(C2CN(c3nnc(-c4cnc(NC5Cc6ccncc6C5)nc4)o3)C2)nn1 (centres unmarked) [Example 84, (4-(1-(5-(2-((6,7-dihydro-5H-cyclopenta[c]pyridin-6-yl)amino)pyrimidin-5-yl)-1,3,4-oxadiazol-2-yl)azetidin-3-yl)-1H-1,2,3-triazol-1-yl)methyl pivalate]",1.1
10,"CC(C)(C)C(=O)OCn1cc(C2CN(c3nnc(-c4cnc(NCc5ccc6c(c5)OCO6)nc4)o3)C2)nn1 [Example 86, (4-(1-(5-(2-((benzo[d][1,3]dioxol-5-ylmethyl)amino)pyrimidin-5-yl)-1,3,4-oxadiazol-2-yl)azetidin-3-yl)-1H-1,2,3-triazol-1-yl)methyl pivalate]",2.8
11,"c1cc2c(cc1CNc1ncc(-c3nnc(N4CC(c5c[nH]nn5)C4)o3)cn1)OCO2 [Example 87, 5-(5-(3-(1H-1,2,3-triazol-4-yl)azetidin-1-yl)-1,3,4-oxadiazol-2-yl)-N-(benzo[d][1,3]dioxol-5-ylmethyl)pyrimidin-2-amine]",18
12,"O=C(CCCc1nnc(NC2Cc3cc(F)c(F)cc3C2)o1)N1CC(c2c[nH]nn2)C1 [Example 90, 1-(3-(1H-1,2,3-triazol-4-yl)azetidin-1-yl)-4-(5-((5,6-difluoro-2,3-dihydro-1H-inden-2-yl)amino)-1,3,4-oxadiazol-2-yl)butan-1-one]",17.9
13,"Clc1ccc(CCNc2ncc(-c3nnc(N4CCC(c5c[nH]nn5)C4)o3)cn2)cc1 (centres unmarked) [Example 92, 5-(5-(3-(1H-1,2,3-triazol-4-yl)pyrrolidin-1-yl)-1,3,4-oxadiazol-2-yl)-N-(4-chlorophenethyl)pyrimidin-2-amine]",85.5
14,"Clc1ccc(CCNc2ncc(-c3nnc(N4CC(c5c[nH]nn5)C4)o3)cn2)cc1 [Example 93, 5-(5-(3-(1H-1,2,3-triazol-4-yl)azetidin-1-yl)-1,3,4-oxadiazol-2-yl)-N-(4-chlorophenethyl)pyrimidin-2-amine]",89.3
